One assay has as its target T1, mTORC1 (Homo sapiens, UniProt P42345+P62942).
T1 construct: endogenous in cells; host or cells: PC3 cells (human prostate adenocarcinoma)
Briefly: Inhibition assay for mTORC1: phosphorylation of pS6K at Thr389, AlphaLISA in PC3 cells. The class given is cell-based. Conditions: read-out: pIC50 mTORC1 (converted). (In general: In Alpha technology, singlet oxygen from a donor bead excites a nearby acceptor bead.)

The target in another assay is T2, mTORC2 (Homo sapiens, UniProt P42345+P62942).
T2 construct: endogenous in cells; host or cells: PC3 cells (human prostate adenocarcinoma)
T2 sequence (P62942 2-108 limits assumed, other chains not shown): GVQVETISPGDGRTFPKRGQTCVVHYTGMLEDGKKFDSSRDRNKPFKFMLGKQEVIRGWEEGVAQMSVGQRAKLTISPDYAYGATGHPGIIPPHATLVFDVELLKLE
Description: Inhibition assay for mTORC2: phosphorylation of pAkt at Ser473, AlphaLISA in PC3 cells. The class given is cell-based. The conditions noted are these: read-out: pIC50 mTORC2 (converted).

Regarding `COC1C[C@@H]2CC[C@@H](C)[C@@](O)(O2)C(=O)C(=O)N2CCCCC2C(=O)O[C@H]([C@H](C)C[C@@H]2CC[C@@H](OC(=O)NCc3ccccc3)[C@H](OC)C2)CC(=O)[C@H](C)/C=C(\C)[C@@H](O)[C@@H](OC)C(=O)[C@H](C)C[C@H](C)/C=C/C=C/C=C/1C` (some centres unmarked) [Compound 355], the IC50 on mTORC1 was less than 0.316 nM; at mTORC2, less than 1000 nM.
On the same counts, the results for `COC1C[C@@H]2CC[C@@H](C)[C@@](O)(O2)C(=O)C(=O)N2CCCCC2C(=O)O[C@H]([C@H](C)C[C@@H]2CC[C@@H](OC(=O)N(C)CCN3CCOCC3)[C@H](OC)C2)CC(=O)[C@H](C)/C=C(\C)[C@@H](O)[C@@H](OC)C(=O)[C@H](C)C[C@H](C)/C=C/C=C/C=C/1C` (some centres unmarked) [Compound 356] are less than 0.316 nM and less than 1000 nM.
Consider `COC1C[C@@H]2CC[C@@H](C)[C@@](O)(O2)C(=O)C(=O)N2CCCCC2C(=O)O[C@H]([C@H](C)C[C@@H]2CC[C@@H](OC(=O)N(CCO)CCO)[C@H](OC)C2)CC(=O)[C@H](C)/C=C(\C)[C@@H](O)[C@@H](OC)C(=O)[C@H](C)C[C@H](C)/C=C/C=C/C=C/1C` (stereo partly drawn) [Compound 357, [(1R,2R,4S)-4-[(2R)-2-[(1R,9S,12S,15R,16E,18R,19R,21R,23S,24E,26E,28E,30S,32S,35R)-1,18-dihydroxy-19,30-dimethoxy-15,17,21,23,29,35-hexamethyl-2,3,10,14,20-pentaoxo-11,36-dioxa-4-azatricyclo[30.3.1.0^4,9]hexatriaconta-16,24,26,28-tetraen-12-yl]propyl]-2-methoxy-cyclohexyl] N,N-bis(2-hydroxyethyl)carbamate], for which the figures for the IC50 on mTORC1 and at mTORC2 were less than 0.316 nM and less than 1000 nM, respectively.
On the same counts, the results for `COC1C[C@@H]2CC[C@@H](C)[C@@](O)(O2)C(=O)C(=O)N2CCCCC2C(=O)O[C@H]([C@H](C)C[C@@H]2CC[C@@H](OC(=O)NCCCN(CCO)CCO)[C@H](OC)C2)CC(=O)[C@H](C)/C=C(\C)[C@@H](O)[C@@H](OC)C(=O)[C@H](C)C[C@H](C)/C=C/C=C/C=C/1C` (some centres unmarked) [Compound 358] are less than 0.316 nM and less than 1000 nM.
For `COC1C[C@@H]2CC[C@@H](C)[C@@](O)(O2)C(=O)C(=O)N2CCCCC2C(=O)O[C@H]([C@H](C)C[C@@H]2CC[C@@H](OC(=O)N(C)CCN(C)C)[C@H](OC)C2)CC(=O)[C@H](C)/C=C(\C)[C@@H](O)[C@@H](OC)C(=O)[C@H](C)C[C@H](C)/C=C/C=C/C=C/1C` (some centres unmarked) [Compound 359], the IC50 on mTORC1 was less than 0.316 nM; at mTORC2, less than 1000 nM.
The matching figures for `COC1C[C@@H]2CC[C@@H](C)[C@@](O)(O2)C(=O)C(=O)N2CCCCC2C(=O)O[C@H]([C@H](C)C[C@@H]2CC[C@@H](OC(=O)NC3C(O)O[C@H](CO)[C@@H](O)[C@@H]3O)[C@H](OC)C2)CC(=O)[C@H](C)/C=C(\C)[C@@H](O)[C@@H](OC)C(=O)[C@H](C)C[C@H](C)/C=C/C=C/C=C/1C` (some centres unmarked) [Compound 361]: greater than 3.16 nM and less than 1000 nM.
Take `COC1C[C@@H]2CC[C@@H](C)[C@@](O)(O2)C(=O)C(=O)N2CCCCC2C(=O)O[C@H]([C@H](C)C[C@@H]2CC[C@@H](OC(=O)NCCO)[C@H](OC)C2)CC(=O)[C@H](C)/C=C(\C)[C@@H](O)[C@@H](OC)C(=O)[C@H](C)C[C@H](C)/C=C/C=C/C=C/1C` (some centres unmarked) [Compound 362]: the IC50 at mTORC1 was less than 0.316 nM; at mTORC2, less than 1000 nM.
Take `COC1C[C@@H]2CC[C@@H](C)[C@@](O)(O2)C(=O)C(=O)N2CCCCC2C(=O)O[C@H]([C@H](C)C[C@@H]2CC[C@@H](OCCCN(C)C)[C@H](OC)C2)CC(=O)[C@H](C)/C=C(\C)[C@@H](O)[C@@H](OC)C(=O)[C@H](C)C[C@H](C)/C=C/C=C/C=C/1C` (stereo partly drawn) [Compound 363, (1R,9S,12S,15R,16E,18R,19R, 21R,23S,24E,26E,28E,30S,32S,35R)-12-[(1R)-2-[(1S,3R,4R)-4-[3-(dimethylamino)propoxy]-3-methoxy-cyclohexyl]-1-methyl-ethyl]-1,18-dihydroxy-19,30-dimethoxy-15,17,21,23,29,35-hexamethyl-11,36-dioxa-4-azatricyclo[30.3.1.0^4,9]hexatriaconta-16,24,26,28-tetraene-2,3,10,14,20-pentone]: the IC50 was less than 0.316 nM at mTORC1 and less than 1000 nM at mTORC2.
With `COC1C[C@@H]2CC[C@@H](C)[C@@](O)(O2)C(=O)C(=O)N2CCCCC2C(=O)O[C@H]([C@H](C)C[C@@H]2CC[C@@H](OC(=O)NCCc3c[nH]cn3)[C@H](OC)C2)CC(=O)[C@H](C)/C=C(\C)[C@@H](O)[C@@H](OC)C(=O)[C@H](C)C[C@H](C)/C=C/C=C/C=C/1C` (some centres unmarked) [Compound 364], the figures for the IC50 on mTORC1 and at mTORC2 were less than 0.316 nM and less than 1000 nM, respectively.
`COC1C[C@@H]2CC[C@@H](C)[C@@](O)(O2)C(=O)C(=O)N2CCCCC2C(=O)O[C@H]([C@H](C)C[C@@H]2CC[C@@H](OC(=O)NCCN3CCCCC3)[C@H](OC)C2)CC(=O)[C@H](C)/C=C(\C)[C@@H](O)[C@@H](OC)C(=O)[C@H](C)C[C@H](C)/C=C/C=C/C=C/1C` (some centres unmarked) [Compound 365]: the IC50 at mTORC1 was less than 0.316 nM; at mTORC2 it was less than 1000 nM.
The matching figures for `COC1C[C@@H]2CC[C@@H](C)[C@@](O)(O2)C(=O)C(=O)N2CCCCC2C(=O)O[C@H]([C@H](C)C[C@@H]2CC[C@@H](OC(=O)NCCCN3CCCCC3)[C@H](OC)C2)CC(=O)[C@H](C)/C=C(\C)[C@@H](O)[C@@H](OC)C(=O)[C@H](C)C[C@H](C)/C=C/C=C/C=C/1C` (some centres unmarked) [Compound 366]: greater than 3.16 nM and 1000 to 10000 nM.
As to `COC1C[C@@H]2CC[C@@H](C)[C@@](O)(O2)C(=O)C(=O)N2CCCCC2C(=O)O[C@H]([C@H](C)C[C@@H]2CC[C@@H](OC(=O)NCCN3CCN(C)CC3)[C@H](OC)C2)CC(=O)[C@H](C)/C=C(\C)[C@@H](O)[C@@H](OC)C(=O)[C@H](C)C[C@H](C)/C=C/C=C/C=C/1C` (some centres unmarked) [Compound 367], the IC50 was less than 0.316 nM at mTORC1 and less than 1000 nM at mTORC2.
On the same counts, the results for `COC1C[C@@H]2CC[C@@H](C)[C@@](O)(O2)C(=O)C(=O)N2CCCCC2C(=O)O[C@H]([C@H](C)C[C@@H]2CC[C@@H](OCCCN3CCC(O)CC3)[C@H](OC)C2)CC(=O)[C@H](C)/C=C(\C)[C@@H](O)[C@@H](OC)C(=O)[C@H](C)C[C@H](C)/C=C/C=C/C=C/1C` (some centres unmarked) [Compound 368] are less than 0.316 nM and less than 1000 nM.

For the origin of these results see patent US11702429B2, “mTORC modulators and uses thereof” (Aeovian Pharmaceuticals, Inc., priority 2019, dated 2023).
